What was measured:
[1] = test system: Rabbit Psoas myofibrils (skeletal myosin ATPase); test: Myofibril ATPase assay, rabbit psoas (skeletal) myofibrils; format: biochemical; conditions: rabbit psoas myofibrils
Procedure, shortened: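 Values are concentrations giving 75% (Y75) or 125% (Y125) of vehicle ATPase activity, from 4-parameter logistic fits of normalized rates. Rates came from linear regression of A340 over 75 min, NADH oxidation coupled to ADP via PK-LDH. Enzyme source: skeletal myofibrils from rabbit psoas, pH 7.0 pCa buffer.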

[2] = target: T1, Porcine ventricle myofibrils (ventricular myosin ATPase) (Sus scrofa, UniProt P79293); test: Myofibril ATPase assay, porcine ventricle myofibrils; format: biochemical, porcine (Yucatan minipigs); conditions: porcine ventricle myofibrils
T1 construct: Myofibrils from porcine cardiac muscle was isolated from the left ventricle of Yucatan minipigs; tissue Exemplar Genetics; host or cells: left ventricle of Yucatan minipigs, myofibrils prepared in house
Procedure, shortened: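 Read-out: A340 kinetic, NADH consumption coupled to ADP via PK-LDH, 75 min. Yucatan minipig LV myofibrils, pCa buffer (PIPES/CaCl2/EGTA, pH 7.0). Linear-regression slope (mAU/min), vehicle = 100%, 4PL fit; Y75 or Y125 reported.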

[3] = test system: Porcine atria myofibrils (atrial myosin ATPase); test: Myofibril ATPase assay, porcine atria myofibrils; format: biochemical; conditions: porcine atria myofibrils
Procedure, shortened: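 Y75 (25% inhibition) or Y125 (activation) values come from 4-parameter logistic fits of vehicle-normalized rates. Rates are linear-regression slopes of NADH absorbance at 340 nm, read kinetically over 75 min, with ADP coupled to NADH oxidation via pyruvate kinase/lactate dehydrogenase.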

[4] = Y75 value (75% activity relative to no compound)

T1 sequence (P79293 whole entry): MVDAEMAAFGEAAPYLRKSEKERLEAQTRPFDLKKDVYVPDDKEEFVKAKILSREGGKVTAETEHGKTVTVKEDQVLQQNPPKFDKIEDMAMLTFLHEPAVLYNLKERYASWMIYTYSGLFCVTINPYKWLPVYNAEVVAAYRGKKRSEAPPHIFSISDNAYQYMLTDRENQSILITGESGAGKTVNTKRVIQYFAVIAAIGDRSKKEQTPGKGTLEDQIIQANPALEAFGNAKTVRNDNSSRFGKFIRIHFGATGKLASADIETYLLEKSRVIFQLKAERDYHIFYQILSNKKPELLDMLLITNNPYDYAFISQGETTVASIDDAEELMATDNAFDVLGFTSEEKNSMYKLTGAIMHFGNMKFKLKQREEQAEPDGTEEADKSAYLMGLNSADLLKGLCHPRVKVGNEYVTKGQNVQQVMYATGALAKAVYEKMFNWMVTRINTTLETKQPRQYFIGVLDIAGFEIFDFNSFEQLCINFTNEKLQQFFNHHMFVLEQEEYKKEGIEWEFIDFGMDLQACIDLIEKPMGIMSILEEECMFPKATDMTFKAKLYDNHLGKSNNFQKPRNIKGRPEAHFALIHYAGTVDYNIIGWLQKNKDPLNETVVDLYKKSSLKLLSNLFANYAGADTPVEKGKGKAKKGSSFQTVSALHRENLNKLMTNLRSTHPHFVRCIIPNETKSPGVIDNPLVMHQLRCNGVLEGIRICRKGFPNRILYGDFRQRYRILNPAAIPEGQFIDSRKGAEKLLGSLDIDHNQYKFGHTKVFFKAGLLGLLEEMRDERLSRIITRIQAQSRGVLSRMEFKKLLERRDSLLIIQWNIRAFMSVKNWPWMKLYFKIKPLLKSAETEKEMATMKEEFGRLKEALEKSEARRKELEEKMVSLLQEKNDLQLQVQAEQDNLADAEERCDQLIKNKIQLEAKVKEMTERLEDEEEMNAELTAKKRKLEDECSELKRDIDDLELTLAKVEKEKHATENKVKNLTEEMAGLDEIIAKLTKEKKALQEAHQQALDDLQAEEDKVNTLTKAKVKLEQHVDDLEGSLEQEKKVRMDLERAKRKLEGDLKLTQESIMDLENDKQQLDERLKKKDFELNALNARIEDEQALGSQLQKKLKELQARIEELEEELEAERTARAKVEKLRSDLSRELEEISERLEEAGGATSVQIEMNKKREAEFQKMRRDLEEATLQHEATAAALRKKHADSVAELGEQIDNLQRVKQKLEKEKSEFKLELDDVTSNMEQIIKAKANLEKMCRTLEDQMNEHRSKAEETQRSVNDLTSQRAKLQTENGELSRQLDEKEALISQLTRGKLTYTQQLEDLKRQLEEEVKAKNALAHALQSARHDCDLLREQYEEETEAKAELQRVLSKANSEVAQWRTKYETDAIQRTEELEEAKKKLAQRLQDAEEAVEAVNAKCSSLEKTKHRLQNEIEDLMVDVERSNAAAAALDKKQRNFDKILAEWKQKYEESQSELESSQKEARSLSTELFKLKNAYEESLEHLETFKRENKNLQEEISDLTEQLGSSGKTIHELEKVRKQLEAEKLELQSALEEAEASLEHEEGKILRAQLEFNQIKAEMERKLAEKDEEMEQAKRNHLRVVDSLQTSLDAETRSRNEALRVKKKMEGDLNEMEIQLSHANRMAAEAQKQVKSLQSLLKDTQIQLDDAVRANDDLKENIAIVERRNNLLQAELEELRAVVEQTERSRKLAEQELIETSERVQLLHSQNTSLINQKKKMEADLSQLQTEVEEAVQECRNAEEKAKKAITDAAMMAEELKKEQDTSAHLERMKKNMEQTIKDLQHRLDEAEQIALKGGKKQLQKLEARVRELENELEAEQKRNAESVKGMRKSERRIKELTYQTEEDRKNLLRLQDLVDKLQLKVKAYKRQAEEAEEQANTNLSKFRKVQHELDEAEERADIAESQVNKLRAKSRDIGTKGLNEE

SMILES	Skeletal EC25 ([1]; Y75 value (no ‡ mark)) [nM]	Ventricular EC25 ([2]; Y75 value (no ‡ mark)) [nM]	Atrial EC25 ([3]; Y75 value (no ‡ mark)) [nM]	Skeletal EC25 ([1]; Y75 value) [nM]	Ventricular EC25 ([2]; Y75 value) [nM]	Atrial EC25 [3, 4] [nM]
COc1nccc2[nH]c(=O)c(CC(=O)N[C@@H](C)c3ncc(C#N)cc3F)c(C(F)(F)F)c12 (single isomer, unassigned) [compound 3010]	–	–	–	630	3570	700
Cc1c(F)ccc2[nH]c(=O)c(C(F)(F)C(=O)N[C@H](C)c3ncc(C#N)cn3)c(C#N)c12 (single isomer, unassigned) [Compound 2511]	280	2640	760	–	–	–
Cc1c(CC(=O)N[C@@H](C)c2cnc(C#N)nc2)c(=O)[nH]c2ccc(C(F)(F)F)nc12 [compound 458]	–	–	–	10510	100000	790
Cc1cccc2[nH]c(=O)c(CC(=O)N[C@@H](C)c3ccc(C#N)cn3)c(C#N)c12 [compound 1111]	260	2280	490	–	–	–
Cc1c(F)ccc2[nH]c(=O)c(CC(=O)N[C@H](C)c3ncc(C#N)cc3F)c(C#N)c12 [compound 1149]	470	150	1900	–	–	–
Cc1c([C@@H](C)C(=O)N[C@H](C)c2ncc(C#N)cc2F)c(=O)[nH]c2ccc(F)c(F)c12 (relative stereo) [compound 2600, Rel-(2R*)-N-[(1R)-1-(5-cyano-3-fluoropyridin-2-yl)ethyl]-2-(5,6-difluoro-4-methyl-2-oxo-1H-quinolin-3-yl) propanamide]	100000	100000	670	–	–	–
C[C@H](NC(=O)[C@H](C)c1c(C(F)(F)F)c2cc(F)ccc2[nH]c1=O)c1ccc(F)cc1F (single isomer, unassigned) [compound 100]	40	690	60	–	–	–
O=C(Cc1cc2cc(F)ccc2[nH]c1=O)N1CC[C@H]2C[C@@H]1c1ccccc12 (single isomer, unassigned) [compound 4502]	500	630	1280	–	–	–
C[C@H](NC(=O)Cc1c(C#N)c2cc(F)ccc2[nH]c1=O)c1ncc(C#N)cc1F [compound 1095]	60	420	180	–	–	–
CC(C(=O)N[C@@H](C)c1ccc(F)cc1F)c1c(C(F)(F)F)c2cc(F)ccc2[nH]c1=O (stereo partly drawn) [compound 113]	40	1610	100	–	–	–
Cc1nc([C@H](C)NC(=O)Cc2c(C)c3c(C)c(F)ccc3[nH]c2=O)ncc1C#N (single isomer, unassigned) [compound 4840]	290	1620	1440	–	–	–
Cc1c(C(F)(F)C(=O)N[C@H](C)c2cccc(C#N)n2)c(=O)[nH]c2ccc(F)cc12 (single isomer, unassigned) [compound 2565]	100000	100000	14390	–	–	–

Continued, values first:

Skeletal EC25 ([1]; Y75 value (no ‡ mark)) [nM]	Ventricular EC25 ([2]; Y75 value (no ‡ mark)) [nM]	Atrial EC25 ([3]; Y75 value (no ‡ mark)) [nM]	Skeletal EC25 ([1]; Y75 value) [nM]	Ventricular EC25 ([2]; Y75 value) [nM]	Atrial EC25 [3, 4] [nM]	SMILES
40	320	50	–	–	–	Cc1c(CC(=O)N[C@H](CO)c2ccc(F)cc2F)c(=O)[nH]c2cccc(C#N)c12 (single isomer, unassigned) [compound 89]
–	–	–	2730	100000	17260	Cc1c(CC(=O)N[C@@H](C)c2ccc(F)cc2F)c(=O)[nH]c2ccnc(Nc3ccccc3)c12 [compound 278]
100000	100000	13110	–	–	–	Cc1cc([C@@H](C)NC(=O)Cc2c(C)c3cc(F)ccc3[nH]c2=O)ncc1F [compound 1060]
–	–	–	30	2230	130	COC[C@H](NC(=O)Cc1c(C)c2c(C#N)nccc2[nH]c1=O)c1ncc(F)cc1F [compound 160]
60	4120	530	–	–	–	C[C@H](NC(=O)[C@H](C)c1c(C(F)(F)F)c2c(F)cccc2[nH]c1=O)c1ccc(F)cc1F (single isomer, unassigned) [compound 98]
–	–	–	13030	67500	100000	Cc1c(CC(=O)N[C@H](CO)c2ccc(F)cc2F)c(=O)[nH]c2ccnc(OC3CC3)c12 [compound 199]
150	260	150	–	–	–	Cc1c(C(F)(F)C(=O)N[C@@H](C)c2ccc(F)cc2F)c(=O)[nH]c2ccc(F)cc12 [compound 4816]
60	680	180	–	–	–	Cc1c(CC(=O)N[C@H](C)c2ccc(C#N)cn2)c(=O)[nH]c2ccc(F)c(C#N)c12 [compound 49]
660	2860	890	–	–	–	COc1ccc2[nH]c(=O)c(CC(=O)N[C@@H](C)c3ccc(F)cc3F)c(C)c2c1C#N [compound 1153]
50	360	160	–	–	–	Cc1c(CC(=O)N[C@@H](C)c2cnc(C#N)cn2)c(=O)[nH]c2ccc(F)cc12 [compound 1109]
220	100000	6810	–	–	–	CC(C(=O)N[C@@H](C)c1ccc(F)cc1F)c1cc2c(Br)cccc2[nH]c1=O (stereo partly drawn) [compound 94]
290	100000	1500	–	–	–	Cc1cc([C@H](C)NC(=O)Cc2c(C)c3c(C)c(F)ccc3[nH]c2=O)ncc1F (single isomer, unassigned) [compound 2077]
42440	100000	100000	–	–	–	COc1ccc2[nH]c(=O)c(CC(=O)N[C@@H](C)c3ccc(F)cc3F)cc2c1 [compound 124]
–	–	–	100000	100000	100000	Cc1cccc([C@H](CO)NC(=O)Cc2c(C)c3c(C)nccc3[nH]c2=O)c1 (single isomer, unassigned) [compound 313]

Reference: US12448369B2 (Edgewise Therapeutics, Inc., priority 2023, dated 2025)
